Data taken from US8076487B2, “Pyridone derivative and herbicide” (Kumiai Chemical Industry Co., Ltd., priority 2006, dated 2011).

What was measured:
Assay type in all cases: in vivo
[1] = system: green foxtail (Setaria viridis (L.) P. Beauv.); assay: Test Example 3: herbicidal effect by application to upland field (foliage treatment); settings: 14th day after application; for herbicidal effect, Green Foxtail: foliage treatment, 1,000 g active ingredient per 1 hectare, greenhouse
Description: (§1) [table] Test Example 3 Test on Herbicidal Effect by Application to Upland Field In a 80 cm2 plastic pot, field soil was filled. Seeds of barnyardgrass (Echinochloa crus-galli (L.) P. Beauv. var. crus-galli), green foxtail (Setaria viridis (L.) P. Beauv.), velvetleaf (Abutilon theophrasti medicus), and slender amaranth (Amaranthus viridis L.) were sown and allowed to grow for two weeks in a greenhouse. Thereafter, the wettable powder prepared according to Formulation Example 1 was diluted in water and a 1,000 liter equivalent amount per 1 hectare so that the active ingredient becomes 1,000 g per 1 hectare was sprayed using a small sprayer from a top of the plants through its entire body for foliage treatment. Then, on the 14th day after the application to the plants grew in a greenhouse, the herbicidal effect was examined in accordance with a standard shown in Table 34.

[2] = system: slender amaranth (Amaranthus viridis L.); assay: as above; settings: 14th day after application; for herbicidal effect, Slender Amaranth: foliage treatment, 1,000 g active ingredient per 1 hectare, greenhouse
Description: as §1

[3] = system: barnyardgrass (Echinochloa crus-galli (L.) P. Beauv. var. crus-galli); assay: as above; settings: 14th day after application; for herbicidal effect, Barnyardgrass: foliage treatment, 1,000 g active ingredient per 1 hectare, greenhouse
Description: as §1

[4] = system: velvetleaf (Abutilon theophrasti medicus); assay: as above; settings: 14th day after application; for herbicidal effect, Velvetleaf: foliage treatment, 1,000 g active ingredient per 1 hectare, greenhouse
Description: as §1

[5] = system: heartshape false pickerelweed (Monochoria vaginalis (Burm.f.) C.Presl); assay: Test Example 1: herbicidal effect by soil application to paddy field; settings: paddy field soil application; active ingredient 1,000 g per 1 hectare; wettable powder added dropwise to water surface the day after sowing; examined on the 21st day after application
Method in brief: (§2)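 Plants were sown in flooded (3 cm) paddy soil and evaluated for herbicidal effect 21 days after soil application in a greenhouse.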

[6] = system: early watergrass (Echinochloa oryzicola Vasing); assay: as above; settings: paddy field soil application; active ingredient 1,000 g per 1 hectare; wettable powder added dropwise to water surface the day after sowing; examined on the 21st day after application
Method in brief: as §2

[7] = system: Japanese bulrush (Scirpus juncoides Roxb.); assay: as above; settings: paddy field soil application; active ingredient 1,000 g per 1 hectare; wettable powder added dropwise to water surface the day after sowing; examined on the 21st day after application
Method in brief: as §2

[8] = foliage treatment, plants grown two weeks, 1,000 g active ingredient per hectare

| SMILES | herbicidal effect, Green Foxtail [1] | herbicidal effect, Slender Amaranth [2] | herbicidal effect, Barnyardgrass [3] | herbicidal effect, Velvetleaf [4] | herbicidal effect, Monochoria vaginalis (Burm. f.) C. Presl [5] | herbicidal effect, Echinochloa oryzicola Vasing [6] | herbicidal effect, Scirpus juncoides Roxb. [7] | herbicidal effect (index), Green Foxtail [1, 8] | herbicidal effect (index), Slender Amaranth [2, 8] | herbicidal effect (index), Barnyardgrass [3, 8] | herbicidal effect (index), Velvetleaf [4, 8] |
| --- | --- | --- | --- | --- | --- | --- | --- | --- | --- | --- | --- |
| Cn1ncc(C(=O)c2ccc(C(F)(F)F)n(CC3CCCO3)c2=O)c1OCc1c(F)cccc1F (stereo not drawn) [IV-136] | 4 (70 to less than 90% of herbicidal effect and crop phytotoxicity) | 5 (90% or more of herbicidal effect and crop phytotoxicity) | 4 (70 to less than 90% of herbicidal effect and crop phytotoxicity) | 4 (70 to less than 90% of herbicidal effect and crop phytotoxicity) | 5 (90% or more of herbicidal effect and crop phytotoxicity) | 5 (90% or more of herbicidal effect and crop phytotoxicity) | 5 (90% or more of herbicidal effect and crop phytotoxicity) |  |  |  |  |
| Cn1ncc(C(=O)c2ccc(C(F)(F)F)n(-c3ccc(Cl)cc3)c2=O)c1O [IV-63] | 4 (70 to less than 90% of herbicidal effect and crop phytotoxicity) | 5 (90% or more of herbicidal effect and crop phytotoxicity) | 4 (70 to less than 90% of herbicidal effect and crop phytotoxicity) | 5 (90% or more of herbicidal effect and crop phytotoxicity) | 5 (90% or more of herbicidal effect and crop phytotoxicity) | 5 (90% or more of herbicidal effect and crop phytotoxicity) | 5 (90% or more of herbicidal effect and crop phytotoxicity) |  |  |  |  |
| COc1ccc(-n2c(C(F)(F)F)ccc(C(=O)c3cnn(C)c3O)c2=O)cc1OC [IV-77] | 3 (50 to less than 70% of herbicidal effect and crop phytotoxicity) | 5 (90% or more of herbicidal effect and crop phytotoxicity) | 5 (90% or more of herbicidal effect and crop phytotoxicity) | 5 (90% or more of herbicidal effect and crop phytotoxicity) | 5 (90% or more of herbicidal effect and crop phytotoxicity) | 5 (90% or more of herbicidal effect and crop phytotoxicity) | 5 (90% or more of herbicidal effect and crop phytotoxicity) |  |  |  |  |
| COCCN(C)n1c(C(F)(F)F)ccc(C(=O)C2=C(O)CCCC2=O)c1=O [I-176] | 5 (90% or more of herbicidal effect and crop phytotoxicity) | 5 (90% or more of herbicidal effect and crop phytotoxicity) | 5 (90% or more of herbicidal effect and crop phytotoxicity) | 5 (90% or more of herbicidal effect and crop phytotoxicity) | 5 (90% or more of herbicidal effect and crop phytotoxicity) | 5 (90% or more of herbicidal effect and crop phytotoxicity) | 5 (90% or more of herbicidal effect and crop phytotoxicity) |  |  |  |  |
| COc1ccccc1COc1c(C(=O)c2ccc(C(F)(F)F)n(C)c2=O)cnn1C [IV-193] | 4 (70 to less than 90% of herbicidal effect and crop phytotoxicity) | 5 (90% or more of herbicidal effect and crop phytotoxicity) | 3 (50 to less than 70% of herbicidal effect and crop phytotoxicity) | 5 (90% or more of herbicidal effect and crop phytotoxicity) | 5 (90% or more of herbicidal effect and crop phytotoxicity) | 5 (90% or more of herbicidal effect and crop phytotoxicity) | 5 (90% or more of herbicidal effect and crop phytotoxicity) |  |  |  |  |
| CCn1c(C(F)(F)F)ccc(C(=O)C2=C(O)C3CCC(C3)C2=O)c1=O (stereo not drawn) [III-2] | 5 (90% or more of herbicidal effect and crop phytotoxicity) | 5 (90% or more of herbicidal effect and crop phytotoxicity) | 5 (90% or more of herbicidal effect and crop phytotoxicity) | 5 (90% or more of herbicidal effect and crop phytotoxicity) | 5 (90% or more of herbicidal effect and crop phytotoxicity) | 5 (90% or more of herbicidal effect and crop phytotoxicity) | 5 (90% or more of herbicidal effect and crop phytotoxicity) |  |  |  |  |
| Cn1ncc(C(=O)c2ccc(C(F)(F)F)n(-c3cccc(S(C)(=O)=O)c3)c2=O)c1O [IV-74] | 4 (70 to less than 90% of herbicidal effect and crop phytotoxicity) | 5 (90% or more of herbicidal effect and crop phytotoxicity) | 4 (70 to less than 90% of herbicidal effect and crop phytotoxicity) | 5 (90% or more of herbicidal effect and crop phytotoxicity) | 4 (70 to less than 90% of herbicidal effect and crop phytotoxicity) | 4 (70 to less than 90% of herbicidal effect and crop phytotoxicity) | 5 (90% or more of herbicidal effect and crop phytotoxicity) |  |  |  |  |
| Cn1c(C(F)(F)F)ccc(C(=O)C2=C(O)CC(C)(C)CC2=O)c1=O [II-3] | 4 (70 to less than 90% of herbicidal effect and crop phytotoxicity) | 5 (90% or more of herbicidal effect and crop phytotoxicity) | 3 (50 to less than 70% of herbicidal effect and crop phytotoxicity) | 5 (90% or more of herbicidal effect and crop phytotoxicity) | 5 (90% or more of herbicidal effect and crop phytotoxicity) | 5 (90% or more of herbicidal effect and crop phytotoxicity) | 5 (90% or more of herbicidal effect and crop phytotoxicity) |  |  |  |  |
| CCCc1ccc(C(=O)C2=C(O)CCCC2=O)c(=O)n1-c1ccccc1 [I-231] | 3 (50 to less than 70% of herbicidal effect and crop phytotoxicity) | 4 (70 to less than 90% of herbicidal effect and crop phytotoxicity) | 4 (70 to less than 90% of herbicidal effect and crop phytotoxicity) | 4 (70 to less than 90% of herbicidal effect and crop phytotoxicity) | 5 (90% or more of herbicidal effect and crop phytotoxicity) | 5 (90% or more of herbicidal effect and crop phytotoxicity) | 5 (90% or more of herbicidal effect and crop phytotoxicity) |  |  |  |  |
| CCn1c(C(F)(F)F)ccc(C(=O)C2=C(O)CCCC2=O)c1=O [I-2] |  |  |  |  | 5 (90% or more of herbicidal effect and crop phytotoxicity) | 5 (90% or more of herbicidal effect and crop phytotoxicity) | 5 (90% or more of herbicidal effect and crop phytotoxicity) | 5 (90% or more of herbicidal effect and crop phytotoxicity) | 5 (90% or more of herbicidal effect and crop phytotoxicity) | 5 (90% or more of herbicidal effect and crop phytotoxicity) | 5 (90% or more of herbicidal effect and crop phytotoxicity) |
| C=C(C)Cn1c(C(F)(F)F)ccc(C(=O)c2cnn(C)c2OC(C)=O)c1=O [IV-180] | 4 (70 to less than 90% of herbicidal effect and crop phytotoxicity) | 5 (90% or more of herbicidal effect and crop phytotoxicity) | 5 (90% or more of herbicidal effect and crop phytotoxicity) | 5 (90% or more of herbicidal effect and crop phytotoxicity) | 5 (90% or more of herbicidal effect and crop phytotoxicity) | 5 (90% or more of herbicidal effect and crop phytotoxicity) | 5 (90% or more of herbicidal effect and crop phytotoxicity) |  |  |  |  |
| CCn1c(C(F)F)ccc(C(=O)C2=C(O)CCCC2=O)c1=O [I-222] | 4 (70 to less than 90% of herbicidal effect and crop phytotoxicity) | 5 (90% or more of herbicidal effect and crop phytotoxicity) | 5 (90% or more of herbicidal effect and crop phytotoxicity) | 5 (90% or more of herbicidal effect and crop phytotoxicity) | 5 (90% or more of herbicidal effect and crop phytotoxicity) | 5 (90% or more of herbicidal effect and crop phytotoxicity) | 5 (90% or more of herbicidal effect and crop phytotoxicity) |  |  |  |  |
